Where two headings read alike, the source gives them in different places.
Biological target: T1, USP25 (USP25-His6, Boston Biochem E-546) (Homo sapiens, UniProt Q9UHP3)
T1 construct: His6; purchased Boston Biochem E-546
T1 sequence (Q9UHP3 1-1055): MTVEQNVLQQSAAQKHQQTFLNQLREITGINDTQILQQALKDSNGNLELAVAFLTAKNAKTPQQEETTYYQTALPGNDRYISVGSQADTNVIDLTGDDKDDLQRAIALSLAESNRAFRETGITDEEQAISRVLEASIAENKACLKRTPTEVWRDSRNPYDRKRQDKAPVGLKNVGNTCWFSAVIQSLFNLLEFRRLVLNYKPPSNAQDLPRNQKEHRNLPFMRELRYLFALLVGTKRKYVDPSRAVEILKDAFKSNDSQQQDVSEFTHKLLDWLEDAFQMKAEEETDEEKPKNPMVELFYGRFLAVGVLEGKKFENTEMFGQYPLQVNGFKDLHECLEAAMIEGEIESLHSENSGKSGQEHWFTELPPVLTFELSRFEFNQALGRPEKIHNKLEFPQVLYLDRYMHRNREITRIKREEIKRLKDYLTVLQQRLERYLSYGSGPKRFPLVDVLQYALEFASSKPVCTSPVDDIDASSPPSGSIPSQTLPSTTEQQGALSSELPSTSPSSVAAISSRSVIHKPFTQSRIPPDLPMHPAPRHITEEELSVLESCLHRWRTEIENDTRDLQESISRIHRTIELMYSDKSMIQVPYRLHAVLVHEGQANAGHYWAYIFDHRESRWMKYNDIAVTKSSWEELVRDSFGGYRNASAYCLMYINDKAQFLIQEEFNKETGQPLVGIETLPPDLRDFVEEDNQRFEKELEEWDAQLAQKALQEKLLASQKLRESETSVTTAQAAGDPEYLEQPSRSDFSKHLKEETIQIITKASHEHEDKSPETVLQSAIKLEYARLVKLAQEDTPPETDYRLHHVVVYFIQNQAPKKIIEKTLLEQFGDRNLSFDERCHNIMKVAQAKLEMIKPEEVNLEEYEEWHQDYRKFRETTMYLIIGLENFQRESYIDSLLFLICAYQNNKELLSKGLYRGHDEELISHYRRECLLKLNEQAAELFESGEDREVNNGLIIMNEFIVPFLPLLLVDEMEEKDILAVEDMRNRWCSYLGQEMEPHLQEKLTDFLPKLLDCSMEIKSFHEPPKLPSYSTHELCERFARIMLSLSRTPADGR
Assay: Ubiquitin-Rhodamine 110 Assay for USP25 Activity, Example A-2
Format: biochemical
Settings: Ubiquitin-Rhodamine 110 assay, read-out: USP25 A-2 IC50 range
In short: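 Inhibition is quantified as IC50 by 4-parameter fit of fluorescence (485/535 nm) from Ub-Rh110 hydrolysis. Enzyme USP25-His6 at 75 pM with 30 min compound preincubation, then 25 nM substrate for 45 min at room temperature in pH 8.0 Tris buffer containing BME.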

Structure (SMILES) | IC50 (Example A-2) | IC50 (format Example A-2)
Cc1cnc2c(N)c(C(=O)N[C@H]3CCc4cc(N5CCNC[C@@H](O)C5)ccc4C3)sc2n1 (single isomer, unassigned) [Example 7-4] | 200 to 2000 nM | 
Cc1cnc2c(N)c(C(=O)N[C@@H]3CCc4cc(N5CCNC[C@@H](O)C5)ccc4C3)sc2n1 (single isomer, unassigned) [Example 7-5] | 200 to 2000 nM | 
Cc1cnc2c(N)c(C(=O)N[C@H]3CCc4cc(N5CCNC[C@H](O)C5)ccc4C3)sc2n1 (single isomer, unassigned) [Example 7-6] | > 2000 nM | 
Cc1cnc2c(N)c(C(=O)N[C@@H]3CCc4cc(N5CCNC[C@H](O)C5)ccc4C3)sc2n1 (single isomer, unassigned) [Example 7-7] | > 2000 nM | 
Cc1ccc2c(N)c(C(=O)N[C@H]3CCc4cc(N5CCN[C@H](CO)C5)ccc4C3)sc2n1 (single isomer, unassigned) [Example 7-8] | > 2000 nM | 
Cc1ccc2c(N)c(C(=O)N[C@H]3CCc4cc(N5CCN[C@@H](CO)C5)ccc4C3)sc2n1 (single isomer, unassigned) [Example 7-9] | > 2000 nM | 
Cc1ccc2c(N)c(C(=O)N[C@@H]3CCc4cc(N5CCN[C@H](CO)C5)ccc4C3)sc2n1 (single isomer, unassigned) [Example 7-10] | 200 to 2000 nM | 
Cc1ccc2c(N)c(C(=O)N[C@@H]3CCc4cc(N5CCN[C@@H](CO)C5)ccc4C3)sc2n1 (single isomer, unassigned) [Example 7-11] | 200 to 2000 nM | 
Cc1ccc2c(N)c(C(=O)N[C@H]3COc4cc(O[C@@H]5COC6(CNC6)C5)ccc4C3)sc2n1 (single isomer, unassigned) [Example 9-1] | 50 to 200 nM | 
Cc1ccc2c(N)c(C(=O)N[C@H]3COc4cc(O[C@H]5COC6(CNC6)C5)ccc4C3)sc2n1 (single isomer, unassigned) [Example 9-2] | 50 to 200 nM | 
CO[C@H]1CN(c2cc(F)c3c(c2)OC[C@H](NC(=O)c2sc4nc(C)ccc4c2N)C3)C[C@@H]1N (single isomer, unassigned) [Example 10-3] | 200 to 2000 nM | 
Cc1nc2sc(C(=O)N[C@H]3CCc4cc(N5CC6CCC(C5)N6)ccc4C3)c(N)c2cc1F (single isomer, unassigned) [Example 11-3] | 200 to 2000 nM | 
Cc1nc2sc(C(=O)N[C@@H]3CCc4cc(N5CC6CCC(C5)N6)ccc4C3)c(N)c2cc1F (single isomer, unassigned) [Example 11-4] | 50 to 200 nM | 
COc1ccc2c(N)c(C(=O)N[C@H]3CCc4cc(N5CC6CCC(C5)N6)ccc4C3)sc2n1 (single isomer, unassigned) [Example 11-5] | 200 to 2000 nM | 
COc1ccc2c(N)c(C(=O)N[C@@H]3CCc4cc(N5CC6CCC(C5)N6)ccc4C3)sc2n1 (single isomer, unassigned) [Example 11-6] | > 2000 nM | 
Cc1cnc2c(N)c(C(=O)N[C@H]3CCc4cc(N5CC6CCC(C5)N6)ccc4C3)sc2n1 (single isomer, unassigned) [Example 11-7] | 200 to 2000 nM | 
Cc1cnc2c(N)c(C(=O)N[C@@H]3CCc4cc(N5CC6CCC(C5)N6)ccc4C3)sc2n1 (single isomer, unassigned) [Example 11-8] | > 2000 nM | 
CCn1ccc2cc(C(=O)N[C@H]3CCc4cc(N5CC6CCC(C5)N6)ccc4C3)cnc21 (single isomer, unassigned) [Example 11-9] | > 2000 nM | 
CCn1ccc2cc(C(=O)N[C@@H]3CCc4cc(N5CC6CCC(C5)N6)ccc4C3)cnc21 (single isomer, unassigned) [Example 11-10] | 200 to 2000 nM | 
Cc1ccc2c(N)c(C(=O)N[C@H]3CCc4cc(N5CCNCC5)cc(F)c4C3)sc2n1 (single isomer, unassigned) [Example 11-11] | > 2000 nM | 
Cc1ccc2c(N)c(C(=O)N[C@@H]3CCc4cc(N5CCNCC5)cc(F)c4C3)sc2n1 (single isomer, unassigned) [Example 11-12] | 200 to 2000 nM | 
Cc1cnc2c(N)c(C(=O)N[C@H]3CCc4cc(N5CC6CCC(C5)N6)cc(F)c4C3)sc2n1 (single isomer, unassigned) [Example 11-13] | > 2000 nM | 
Cc1cnc2c(N)c(C(=O)N[C@@H]3CCc4cc(N5CC6CCC(C5)N6)cc(F)c4C3)sc2n1 (single isomer, unassigned) [Example 11-14] | 200 to 2000 nM | 

Structure (SMILES) | IC50 (Example A-2) | IC50 (format Example A-2)
Cc1ccc2c(N)c(C(=O)N[C@@H]3COc4cc(N5CCNCC5)ccc4[C@@H]3C)sc2n1 (single isomer, unassigned) [Example 11-18] | > 2000 nM | 
CCn1ccc2cc(C(=O)N[C@@H]3CCc4cc(N5CC6CCC(C5)N6)ccc4C3)nnc21 (single isomer, unassigned) [Example 11-23] | > 2000 nM | 
CCn1ccc2cc(C(=O)N[C@H]3CCc4cc(N5CC6CCC(C5)N6)ccc4C3)nnc21 (single isomer, unassigned) [Example 11-24] | > 2000 nM | 
Cc1ccc2c(N)c(C(=O)N[C@H]3CCc4cc(N5C6CNCC5C6)ccc4C3)sc2n1 (single isomer, unassigned) [Example 11-35] |  | 200 to 2000 nM
Cc1ccc2c(N)c(C(=O)N[C@@H]3CCc4cc(N5C6CNCC5C6)ccc4C3)sc2n1 (single isomer, unassigned) [Example 11-36] |  | 200 to 2000 nM
Cc1nc2sc(C(=O)N[C@H]3CCc4cc(N5CC6CCC(C5)N6)ccc4C3)c(N)c2s1 (single isomer, unassigned) [Example 12-1] |  | > 2000 nM
Cc1ccc2c(N)c(C(=O)N[C@H]3COc4c(F)c(N5CC6CCC(C5)N6)cc(F)c4C3)sc2n1 (single isomer, unassigned) [Example 13-1] |  | 50 to 200 nM
Cc1ccc2c(N)c(C(=O)N[C@@H]3COc4c(F)c(N5CC6CCC(C5)N6)cc(F)c4C3)sc2n1 (single isomer, unassigned) [Example 13-2] |  | > 2000 nM
Cc1ccc2c(N)c(C(=O)N[C@@H]3COc4cc(N5CCNCC5)c(Cl)cc4C3)sc2n1 (single isomer, unassigned) [Example 13-6] |  | 50 to 200 nM
Cc1nc2sc(C(=O)N[C@@H]3CCc4c(C#N)c(N5CC6CCC(C5)N6)cc(F)c4C3)c(N)c2s1 (single isomer, unassigned) [Example 14-22] |  | > 2000 nM
Cc1ccc2c(N)c(C(=O)N[C@@H]3CCc4cc(N5CCNCC5)cnc4C3)sc2n1 (single isomer, unassigned) [Example 15-1] |  | > 2000 nM
Cc1ccc2c(N)c(C(=O)N[C@H]3CCc4cc(N5CCNCC5)cnc4C3)sc2n1 (single isomer, unassigned) [Example 15-2] |  | > 2000 nM
Cc1ccc2c(N)c(C(=O)N[C@@H]3CCc4c(ccc(N5CC6CCC(C5)N6)c4F)C3)sc2n1 (single isomer, unassigned) [Example 21-1] |  | > 2000 nM
Cc1ccc2c(N)c(C(=O)N[C@H]3CCc4c(ccc(N5CC6CCC(C5)N6)c4F)C3)sc2n1 (single isomer, unassigned) [Example 21-2] |  | 200 to 2000 nM
Cc1ccc2c(N)c(C(=O)N[C@@H]3CCc4cc(N5CC6CCC(C5)N6)c(F)cc4C3)sc2n1 (single isomer, unassigned) [Example 21-3] |  | 50 to 200 nM
Cc1ccc2c(N)c(C(=O)N[C@H]3CCc4cc(N5CC6CCC(C5)N6)c(F)cc4C3)sc2n1 (single isomer, unassigned) [Example 21-4] |  | > 2000 nM
Cc1ccc2c(N)c(C(=O)N[C@@H]3CCc4c(ccc(N5CCNCC5)c4F)C3)sc2n1 (single isomer, unassigned) [Example 21-5] |  | 50 to 200 nM
Cc1ccc2c(N)c(C(=O)N[C@H]3CCc4c(ccc(N5CCNCC5)c4F)C3)sc2n1 (single isomer, unassigned) [Example 21-6] |  | > 2000 nM
Cc1ccc2c(N)c(C(=O)N[C@@H]3CCc4cc(N5CCNCC5)c(F)cc4C3)sc2n1 (single isomer, unassigned) [Example 21-7] |  | 200 to 2000 nM
Cc1ccc2c(N)c(C(=O)N[C@H]3CCc4cc(N5CCNCC5)c(F)cc4C3)sc2n1 (single isomer, unassigned) [Example 21-8] |  | > 2000 nM
Cc1ccc2c(N)c(C(=O)N[C@H]3CCc4c(F)c(N5CCNCC5)cc(F)c4C3)sc2n1 (single isomer, unassigned) [Example 22-1] |  | > 2000 nM
Cc1ccc2c(N)c(C(=O)N[C@@H]3CCc4c(F)c(N5CCNCC5)cc(F)c4C3)sc2n1 (single isomer, unassigned) [Example 22-2] |  | 50 to 200 nM

Source: patent US11524966B1 (Valo Early Discovery, Inc., priority 2017, dated 2022)
